This is an account of results in patent publication US10493070B2 (priority 2016, dated 2019).

In general, EC50 refers to the concentration that produces a half-maximal response.

For this experiment, the system named is recombinant NL4-3 virus (NLRluc, Renilla luciferase in nef, Gag P373S). The experiment in a line: HIV cell culture assay (Renilla luciferase reporter virus in MT-2 cells). The format is cell-based. Particulars: Renilla, NL43, read-out: 10% FBS EC50, 10% FBS, numeric values. The essentials: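 MT-2 cells infected with NL4-3 reporter virus (Renilla luciferase replacing part of nef, Gag P373S), made by 293T transfection and titered in MT-2 cells by luciferase. Infection runs 4–5 days with serial inhibitor dilutions. Antiviral activity read as Renilla luciferase activity (Dual Luciferase reagents).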
A general note: Reporter assays use an easily measured gene product as a stand-in for the process of interest.

Take `CC1(C)C(c2ccc(C(=O)O)cc2)=CC[C@]2(C)CN(C3CCC(CN)(c4ccccc4)CC3)CC=C12` (stereo partly drawn) [Example C3, (S)-4-(2-(4-(aminomethyl)-4-phenylcyclohexyl)-5,5,8a-trimethyl-1,2,3,5,8,8a-hexahydroisoquinolin-6-yl)benzoic acid]: the EC50 worked out at 150 nM.
To `CC1(C)C(c2ccc(C(=O)O)cc2)=CC[C@]2(C)CN(C3CCC(CN(CCN4CCS(=O)(=O)CC4)CCN4CCS(=O)(=O)CC4)(c4ccccc4)CC3)CC=C12` (stereo partly drawn) [Example C4, (S)-4-(2-(4-((bis(2-(1,1-dioxidothiomorpholino)ethyl)amino)methyl)-4-phenylcyclohexyl)-5,5,8a-trimethyl-1,2,3,5,8,8a-hexahydroisoquinolin-6-yl)benzoic acid] belongs over 3000 nM.
